The values below come from patent US20050288307A1, “Anti-viral compounds” (priority 2002, published 2005).

One experiment deals with T1, CDK2/Cyclin E (Homo sapiens, UniProt P24941).
T1 construct: His; made in house; host or cells: Sf9 insect cells (baculovirus)
The experiment can be described thus: CDK2/cyclin E kinase assay (GST-Rb phosphorylation).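 Also: enzyme source: His-tagged CDK2/cyclin E complex co-expressed recombinantly in Sf9 insect cells using baculovirus constructs.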 Particulars: Table 3; read-out: Average IC50 CDK2 cyclin E1. It is filed as biochemical.

The target of another experiment is CDK9/cyclin T1 (Homo sapiens, UniProt P50750). Nature of the experiment: CDK9 assay (CTD peptide substrate). It is filed as biochemical. To be noted: Table 3; read-out: Average IC50 CDK9 cyclin T1. As to the method: (§1) CTD peptide substrate (biotinyl-Ahx-(Tyr-Ser-Pro-Thr-Ser-Pro-Ser)4-NH2; 1-2 mg/mL) and recombinant human CDK7/cyclin H, CDK9/cyclin T1, or CDK9/cyclin K (0.5-2 μg) were incubated for 45 min at 30° C. in the presence of varying amounts of test compound in 20 mM MOPS pH 7.2, 25 mM β-glycerophosphate, 5 mM EGTA, 1 mM DTT, 1 mM sodium vanadate, 15 mM MgCl2, and 100 μM ATP (containing a trace amount of ^32PγATP) in a total volume of 25 μL in a 96-well microtiter plate. The reaction was stopped by placing the plate on ice for 2 min. Avidin (50 μg) was added to each well, and the plate was incubated at room temp for 30 min. The samples were transferred to a 96-well P81 filter plate, and washed (4×200 μL per well) with 75 mM phosphoric acid. Microscint 40 scintillation liquid (50 μL) was added to each well, and the amount of ^32P incorporation for each sample was measured using a Packard Topcount microplate scintillation counter.
Sequence of CDK9/cyclin T1 (P50750 whole entry): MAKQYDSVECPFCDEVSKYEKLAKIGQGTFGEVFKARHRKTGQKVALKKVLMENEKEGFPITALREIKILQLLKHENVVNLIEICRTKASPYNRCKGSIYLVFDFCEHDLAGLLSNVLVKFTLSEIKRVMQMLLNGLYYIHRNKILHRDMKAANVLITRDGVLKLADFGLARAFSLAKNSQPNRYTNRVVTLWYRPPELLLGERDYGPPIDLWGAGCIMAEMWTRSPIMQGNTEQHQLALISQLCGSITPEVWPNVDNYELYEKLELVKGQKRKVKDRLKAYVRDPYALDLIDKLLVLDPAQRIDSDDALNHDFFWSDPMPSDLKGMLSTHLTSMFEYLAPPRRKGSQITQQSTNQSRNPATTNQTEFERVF
Sequence of CDK9/cyclin T1 (O60563 whole entry partner): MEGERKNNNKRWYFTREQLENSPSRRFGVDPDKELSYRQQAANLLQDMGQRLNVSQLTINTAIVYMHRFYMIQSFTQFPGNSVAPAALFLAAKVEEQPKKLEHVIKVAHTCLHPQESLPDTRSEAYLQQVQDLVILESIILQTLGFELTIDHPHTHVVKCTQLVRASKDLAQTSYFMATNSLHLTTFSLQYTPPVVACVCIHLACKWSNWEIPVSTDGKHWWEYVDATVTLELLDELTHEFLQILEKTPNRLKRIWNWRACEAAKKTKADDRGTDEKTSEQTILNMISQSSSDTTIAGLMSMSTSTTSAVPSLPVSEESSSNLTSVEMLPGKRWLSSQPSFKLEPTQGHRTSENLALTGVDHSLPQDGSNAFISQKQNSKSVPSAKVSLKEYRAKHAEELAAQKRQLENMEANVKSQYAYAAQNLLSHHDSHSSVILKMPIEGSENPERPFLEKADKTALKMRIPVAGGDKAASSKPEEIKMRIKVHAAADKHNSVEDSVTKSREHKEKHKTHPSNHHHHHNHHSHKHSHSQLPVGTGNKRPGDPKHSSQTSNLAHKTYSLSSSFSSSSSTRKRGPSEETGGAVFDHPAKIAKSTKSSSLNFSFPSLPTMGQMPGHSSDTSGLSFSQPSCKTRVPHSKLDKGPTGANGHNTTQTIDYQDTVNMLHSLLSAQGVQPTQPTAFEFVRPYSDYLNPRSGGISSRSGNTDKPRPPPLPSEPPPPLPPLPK

Another experiment concerns the target CDK4/Cyclin D1 (Homo sapiens, UniProt P11802). Nature of the experiment: CDK4/cyclin D1 kinase assay (GST-Rb phosphorylation). It is filed as biochemical. Particulars: Table 3; read-out: Average IC50 CDK4 cyclin D1.
The target in another experiment is CDK1/Cyclin B (Homo sapiens, UniProt P06493). The experiment can be described thus: CDK1/cyclin B kinase assay (GST-Rb phosphorylation).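 Also: Enzyme: His-tagged CDK1/Cyclin B co-expressed in baculovirus-infected Sf9 insect cells, purified via metal-chelate chromatography.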
Sequence of CDK1/Cyclin B (P06493 whole entry, species assumed): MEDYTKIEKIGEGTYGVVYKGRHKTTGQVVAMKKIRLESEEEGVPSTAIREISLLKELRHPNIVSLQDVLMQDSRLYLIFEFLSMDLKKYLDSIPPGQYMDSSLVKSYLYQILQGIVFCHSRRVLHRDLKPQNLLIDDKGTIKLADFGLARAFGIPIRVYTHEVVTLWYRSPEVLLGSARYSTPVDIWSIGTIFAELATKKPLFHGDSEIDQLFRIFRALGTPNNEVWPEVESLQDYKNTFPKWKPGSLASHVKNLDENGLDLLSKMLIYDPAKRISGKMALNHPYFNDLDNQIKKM
Sequence of CDK1/Cyclin B (P14635 whole entry partner, species assumed): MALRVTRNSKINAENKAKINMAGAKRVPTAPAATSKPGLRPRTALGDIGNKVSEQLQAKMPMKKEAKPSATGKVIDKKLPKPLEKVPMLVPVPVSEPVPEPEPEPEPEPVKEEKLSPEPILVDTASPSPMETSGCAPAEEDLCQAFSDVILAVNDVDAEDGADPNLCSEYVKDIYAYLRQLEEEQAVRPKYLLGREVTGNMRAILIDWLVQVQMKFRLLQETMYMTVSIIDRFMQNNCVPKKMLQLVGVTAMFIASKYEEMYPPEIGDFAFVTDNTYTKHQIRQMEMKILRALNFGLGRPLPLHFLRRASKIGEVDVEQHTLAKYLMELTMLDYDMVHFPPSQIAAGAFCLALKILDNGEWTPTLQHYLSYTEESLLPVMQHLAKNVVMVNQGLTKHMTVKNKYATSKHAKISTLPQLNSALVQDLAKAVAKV
Another experiment has as its target CDK7/cyclin H (Homo sapiens, UniProt P50613). Nature of the experiment: CDK7 assay (CTD peptide substrate). It is filed as biochemical. As to the method: as §1
Where [1] appears, read: Table 3, read-out: Average IC50 CDK7 cyclin H.

Read-outs that look alike come from different tables or passages of the source. Where only a bound is given, the exact number is not on record here.

Sequence of CDK4/Cyclin D1 (P11802 whole entry, species assumed): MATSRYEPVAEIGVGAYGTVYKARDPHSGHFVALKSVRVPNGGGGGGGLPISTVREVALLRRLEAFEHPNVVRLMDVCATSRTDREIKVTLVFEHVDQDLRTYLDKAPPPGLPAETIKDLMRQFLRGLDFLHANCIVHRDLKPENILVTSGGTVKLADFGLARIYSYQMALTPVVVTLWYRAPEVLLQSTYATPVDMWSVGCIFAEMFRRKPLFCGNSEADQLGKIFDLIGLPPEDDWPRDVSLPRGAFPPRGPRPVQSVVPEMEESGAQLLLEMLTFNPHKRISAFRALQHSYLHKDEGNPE
Sequence of CDK4/Cyclin D1 (P24385 whole entry partner, species assumed): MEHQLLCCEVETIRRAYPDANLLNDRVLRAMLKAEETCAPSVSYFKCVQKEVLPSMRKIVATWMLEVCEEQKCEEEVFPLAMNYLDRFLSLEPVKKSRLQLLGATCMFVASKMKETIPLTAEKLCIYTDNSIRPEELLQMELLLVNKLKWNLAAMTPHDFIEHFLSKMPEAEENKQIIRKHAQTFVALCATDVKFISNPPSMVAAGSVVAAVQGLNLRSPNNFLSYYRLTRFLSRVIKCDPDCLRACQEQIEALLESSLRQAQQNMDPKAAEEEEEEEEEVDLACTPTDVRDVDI
Sequence of CDK7/cyclin H (P50613 whole entry): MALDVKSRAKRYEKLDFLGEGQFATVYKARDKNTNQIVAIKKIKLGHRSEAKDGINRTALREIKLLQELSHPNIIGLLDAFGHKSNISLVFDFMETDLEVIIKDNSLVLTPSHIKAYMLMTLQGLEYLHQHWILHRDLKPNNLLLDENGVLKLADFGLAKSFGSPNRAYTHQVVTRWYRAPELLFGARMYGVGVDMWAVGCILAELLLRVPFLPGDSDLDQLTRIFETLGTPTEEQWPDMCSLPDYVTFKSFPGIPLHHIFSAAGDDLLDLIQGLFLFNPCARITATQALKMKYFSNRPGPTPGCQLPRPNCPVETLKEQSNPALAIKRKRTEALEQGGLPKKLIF
Sequence of CDK7/cyclin H (P51946 whole entry partner): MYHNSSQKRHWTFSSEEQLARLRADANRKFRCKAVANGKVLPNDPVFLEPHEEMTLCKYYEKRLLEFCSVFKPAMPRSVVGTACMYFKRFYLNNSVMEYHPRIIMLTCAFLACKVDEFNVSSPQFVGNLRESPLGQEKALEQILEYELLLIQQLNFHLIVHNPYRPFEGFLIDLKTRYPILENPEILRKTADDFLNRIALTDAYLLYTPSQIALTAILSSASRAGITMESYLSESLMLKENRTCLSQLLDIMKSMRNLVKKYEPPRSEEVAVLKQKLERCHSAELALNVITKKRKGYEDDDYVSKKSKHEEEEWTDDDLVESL
Method for CDK1/Cyclin B: His-tagged CDK2/Cyclin E and CDK1/Cyclin B may be co-expressed and PKCα singularly expressed in Sf 9 insect cells infected with the appropriate baculovirus constructs. The cells are harvested two days after infection by low speed centrifugation and the proteins purified from the insect cell pellets by Metal-chelate chromatography. Briefly, the insect cell pellet is lysed in Buffer A (10 mM Tris-HCl, pH 8.0, 150 mM NaCl, 0.02% NP40 and 5 mM β-marcaptoethanol, 1 mM NaF. 1 mM Na3VO4 and Protease Inhibitors Coctail (Sigma) containing AEBSF, pepstatin A, E 64, bestatin, leupeptin) by sonication. The soluble fraction is cleared by centrifugation and loaded onto Ni-NTA-Agarose (Quiagen). Non bound proteins were washed off with 300 mM NaCl, 5-15 mM Imidazole in Buffer A and the bound proteins eluted with 250 mM Imidazole in Buffer A. The purified proteins are extensively dialyzed against Storage buffer (20 mM HEPES pH 7.4, 50 mM NaCl, 2 mM DTT, 1 mM EDTA, 1 mM EGTA, 0.02% NP40, 10% v/v Glycerol) aliquoted and stored at −70° C.

Consider `CNc1nc(C)c(-c2ccnc(Nc3cccc([N+](=O)[O-])c3)n2)s1` [Compound 61, [4-(4-Methyl-2-methylamino-thiazol-5-yl)-pyrimidin-2-yl]-(3-nitro-phenyl)-amine], for which the IC50 (as a rule, the concentration that gives 50% inhibition) turned out to be 2100 nM at CDK2/Cyclin E and 190 nM on CDK9/cyclin T1.
`Cc1nc(N)sc1-c1ccnc(Nc2ccc(C(F)(F)F)cc2)n1` [Compound 110, [4-(2-Amino-4-methyl-thiazol-5-yl)-pyrimidin-2-yl]-(4-trifluoromethyl-phenyl)-amine]: the IC50 at CDK2/Cyclin E amounted to 680 nM; on CDK4/Cyclin D1 it was 5800 nM.
As for `Cc1nc(C)c(-c2ccnc(Nc3cccc(Cl)c3)n2)s1` [Compound 3, (3-Chloro-phenyl)-[4-(2,4-dimethyl-thiazol-5-yl)-pyrimidin-2-yl]-amine], the IC50 was 32000 nM against CDK1/Cyclin B, 5600 nM on CDK2/Cyclin E, more than 100000 nM on CDK7/cyclin H (setting [1]) and more than 50000 nM on CDK4/Cyclin D1.
For `COC(=O)c1ccc(Nc2nccc(-c3sc(C)nc3C)n2)cc1` [Compound 37, 4-[4-(2,4-Dimethyl-thiazol-5-yl)-pyrimidin-2-ylamino]-benzoic acid methyl ester], the IC50 against CDK1/Cyclin B was 38000 nM; on CDK2/Cyclin E it was 7500 nM; on CDK4/Cyclin D1, 17000 nM.
For the compound `Cc1nc(N)sc1-c1ccnc(Nc2cccc(I)c2)n1` [Compound 113, [4-(2-Amino-4-methyl-thiazol-5-yl)-pyrimidin-2-yl]-(3-iodo-phenyl)-amine], the IC50 on CDK7/cyclin H (setting [1]) was determined as 590 nM.
As to `COc1ccc(Nc2nccc(-c3sc(=O)n(C)c3C)n2)cc1` [Compound 157, 5-[2-(4-Methoxy-phenylamino)-pyrimidin-4-yl]-3,4-dimethyl-3H-thiazol-2-one], the IC50 at CDK1/Cyclin B is 780 nM; on CDK7/cyclin H (Table 4, read-out: Kinase Inhibition IC50 CDK7-cyclin H) it was 2000 nM.
For the compound `Cc1nc(N(C)C)sc1-c1ccnc(Nc2cccc(Cl)c2)n1` [Compound 143, (3-Chloro-phenyl)-[4-(2-dimethylamino-4-methyl-thiazol-5-yl)-pyrimidin-2-yl]-amine], the IC50 on CDK2/Cyclin E amounted to 890 nM; on CDK4/Cyclin D1, 5400 nM.
On to `CNc1nc(C)c(-c2ccnc(Nc3cccc(OC)c3)n2)s1` [Compound 73, (3-Methoxy-phenyl)-[4-(4-methyl-2-methylamino-thiazol-5-yl)-pyrimidin-2-yl]-amine], for which the IC50 on CDK2/Cyclin E is 310 nM; at CDK9/cyclin T1, 480 nM.
For `CCN(CC)CCOc1ccc(Nc2nccc(-c3sc(C)nc3C)n2)cc1` [Compound 122, [4-(2-Diethylamino-ethoxy)-phenyl]-[4-(2,4-dimethyl-thiazol-5-yl)-pyrimidin-2-yl]-amine], the IC50 at CDK7/cyclin H (setting [1]) worked out at 440 nM.
Consider `Cc1nc(C)c(-c2ccnc(Nc3ccc([N+](C)(C)C)cc3)n2)s1` [Compound 104, {4-[4-(2,4-Dimethyl-thiazol-5-yl)-pyrimidin-2-ylamino]-phenyl}-trimethyl-ammonium], for which the results for the IC50 at CDK7/cyclin H (setting [1]) and at CDK9/cyclin T1 were 390 nM and 140 nM, respectively.
As for `Cc1nc(N)sc1-c1ccnc(Nc2ccc([N+](=O)[O-])cc2)n1` [Compound 151, [4-(2-Amino-4-methyl-thiazol-5-yl)-pyrimidin-2-yl]-(4-nitro-phenyl)-amine], the IC50 on CDK2/Cyclin E is 180 nM; at CDK4/Cyclin D1, more than 50000 nM.
With `Cc1nc(N)sc1-c1ccnc(Nc2ccc(Br)cc2)n1` [Compound 120, [4-(2-Amino-4-methyl-thiazol-5-yl)-pyrimidin-2-yl]-(4-bromo-phenyl)-amine], the IC50 on CDK2/Cyclin E turned out to be 1000 nM; on CDK4/Cyclin D1 it was 1600 nM.
Turning to `CCNc1nc(C)c(-c2ccnc(Nc3ccc(Cl)cc3)n2)s1` [Compound 134, (4-Chloro-phenyl)-[4-(2-ethylamino-4-methyl-thiazol-5-yl)-pyrimidin-2-yl]-amine], the IC50 against CDK1/Cyclin B was 22000 nM; at CDK2/Cyclin E, 2000 nM; on CDK9/cyclin T1, 5900 nM.
As for `Cc1nc(C)c(-c2ccnc(Nc3cccc(NC(=N)N)c3)n2)s1` [Compound 99, N-{3-[4-(2,4-Dimethyl-thiazol-5-yl)-pyrimidin-2-ylamino]-phenyl}-guanidine], the IC50 at CDK7/cyclin H (setting [1]) came to 310 nM; at CDK9/cyclin T1 it was 260 nM.
For the compound `Cc1nc(C)c(-c2ccnc(Nc3ccc(N(C)C)c([N+](=O)[O-])c3)n2)s1` [Compound 127, N^4-[4-(2,4-Dimethyl-thiazol-5-yl)-pyrimidin-2-yl]-N^1,N^1-dimethyl-2-nitro-benzene-1,4-diamine], the figures for the IC50 against CDK1/Cyclin B and on CDK7/cyclin H (setting [1]) were 130 nM and 1500 nM, respectively.
For `Cc1nc(C)c(-c2ccnc(Nc3ccc(Cc4ccncc4)cc3)n2)s1` [Compound 101, [4-(2,4-Dimethyl-thiazol-5-yl)-pyrimidin-2-yl]-(4-pyridin-4-ylmethyl-phenyl)-amine], the IC50 at CDK2/Cyclin E was determined as 690 nM; on CDK4/Cyclin D1, 1100 nM.
Take `Cc1nc(N)sc1-c1ccnc(Nc2cccc(Cl)c2)n1` [Compound 112, [4-(2-Amino-4-methyl-thiazol-5-yl)-pyrimidin-2-yl]-(3-chloro-phenyl)-amine]: the IC50 on CDK2/Cyclin E is 18 nM; on CDK4/Cyclin D1 it was 71 nM.
For the compound `CNc1nc(C)c(-c2ccnc(Nc3ccc(O)cc3)n2)s1` [Compound 48, 4-[4-(4-Methyl-2-methylamino-thiazol-5-yl)-pyrimidin-2-ylamino]-phenol], the IC50 worked out at 860 nM on CDK7/cyclin H (setting [1]) and 76 nM on CDK9/cyclin T1.
For the compound `CNc1nc(C)c(-c2ccnc(Nc3ccc(O)c([N+](=O)[O-])c3)n2)s1` [Compound 58, 4-[4-(4-Methyl-2-methylamino-thiazol-5-yl)-pyrimidin-2-ylamino]-2-nitro-phenol], the IC50 on CDK2/Cyclin E turned out to be 1500 nM; on CDK9/cyclin T1, 61 nM.
Turning to `CNc1nc(C)c(-c2ccnc(Nc3cccc(F)c3)n2)s1` [Compound 87, (3-Fluoro-phenyl)-[4-(4-methyl-2-methylamino-thiazol-5-yl)-pyrimidin-2-yl]-amine], the results for the concentration for half-maximal inhibition (IC50) on CDK2/Cyclin E and on CDK9/cyclin T1 were 1300 nM and 63 nM, respectively.
As for `Cc1nc(C)c(-c2ccnc(Nc3cccc(O)c3)n2)s1` [Compound 27, 3-[4-(2,4-Dimethyl-thiazol-5-yl)-pyrimidin-2-ylamino]-phenol], the IC50 on CDK1/Cyclin B was determined as 1200 nM; on CDK7/cyclin H (setting [1]) it was 3200 nM; on CDK9/cyclin T1, 240 nM.
Turning to `Cc1nc(N)sc1-c1ccnc(Nc2ccc(O)cc2)n1` [Compound 98, 4-[4-(2-Amino-4-methyl-thiazol-5-yl)-pyrimidin-2-ylamino]-phenol], the IC50 at CDK7/cyclin H (setting [1]) came out at 1000 nM; at CDK9/cyclin T1, 45 nM.
As for `CNc1nc(C)c(-c2ccnc(Nc3cccc(Br)c3)n2)s1` [Compound 68, (3-Bromo-phenyl)-[4-(4-methyl-2-methylamino-thiazol-5-yl)-pyrimidin-2-yl]-amine], the IC50 at CDK2/Cyclin E is 27000 nM; at CDK9/cyclin T1 it was 10 nM.
Turning to `COc1ccc(Nc2nccc(-c3sc(C)nc3C)n2)cc1Cl` [Compound 39, (3-Chloro-4-methoxy-phenyl)-[4-(2,4-dimethyl-thiazol-5-yl)-pyrimidin-2-yl]-amine], the IC50 against CDK1/Cyclin B is 40000 nM; at CDK2/Cyclin E it was 5600 nM; on CDK4/Cyclin D1, more than 50000 nM.
On to `Cc1nc(N(C)C)sc1-c1ccnc(Nc2ccc(F)cc2)n1` [Compound 142, [4-(2-Dimethylamino-4-methyl-thiazol-5-yl)-pyrimidin-2-yl]-(4-fluoro-phenyl)-amine], for which the IC50 stood at 1300 nM on CDK2/Cyclin E and 4000 nM at CDK4/Cyclin D1.
For `Cc1nc(C)c(-c2ccnc(Nc3ccc(O)c([N+](=O)[O-])c3)n2)s1` [Compound 32, 4-[4-(2,4-Dimethyl-thiazol-5-yl)-pyrimidin-2-ylamino]-2-nitro-phenol], the IC50 against CDK1/Cyclin B is 14000 nM; at CDK4/Cyclin D1, 380 nM; at CDK9/cyclin T1, 55 nM.
Consider `Cc1nc(C)c(-c2ccnc(Nc3ccc(F)cc3)n2)s1` [Compound 8, [4-(2,4-Dimethyl-thiazol-5-yl)-pyrimidin-2-yl]-(4-fluoro-phenyl)-amine], for which the IC50 against CDK1/Cyclin B is 17000 nM; at CDK7/cyclin H (setting [1]), 16000 nM; at CDK9/cyclin T1, 310 nM.
`Cc1nc(N(C)C)sc1-c1ccnc(Nc2ccc(Cl)cc2)n1` [Compound 141, (4-Chloro-phenyl)-[4-(2-dimethylamino-4-methyl-thiazol-5-yl)-pyrimidin-2-yl]-amine]: the IC50 on CDK2/Cyclin E was 3900 nM; on CDK4/Cyclin D1, 4800 nM.
Consider `Cc1nc(C)c(-c2ccnc(Nc3ccc(C#N)cc3)n2)s1` [Compound 35, 4-[4-(2,4-Dimethyl-thiazol-5-yl)-pyrimidin-2-ylamino]-benzonitrile], for which the values for the IC50 at CDK1/Cyclin B, at CDK2/Cyclin E and on CDK4/Cyclin D1 were more than 50000 nM, 8000 nM and more than 50000 nM, respectively.
Turning to `CNc1nc(C)c(-c2ccnc(Nc3ccc(I)c([N+](=O)[O-])c3)n2)s1` [Compound 132, (4-Iodo-3-nitro-phenyl)-[4-(4-methyl-2-methylamino-thiazol-5-yl)-pyrimidin-2-yl]-amine], the IC50 on CDK9/cyclin T1 stood at 110 nM.
